Laboratory results as given in patent US7638554B2, “Flavanoids as chemotherapeutic, chemopreventive, and antiangiogenic agents” (SRI International, priority 2002, dated 2009).

Experiments:
[1] = tested on: colon cancer cell line KM12; test: Growth inhibition, sulforhodamine-based protein determination, KM12; format: cell-based; details: Homo sapiens, KM12, 144 h; continuous exposure six days
Protocol: The novel compound SR 13179 was assayed for its ability to inhibit growth in several cancer cell lines. The cell lines studied included breast cancer cell line MCF-7 (ER+); prostate cancer cell lines LNCaP, PC3, and DU145; lung cancer cell line A427; ovarian cancer cell lines IGROV1, OVCAR-3, OVCAR-4, OVCAR-5, OVCAR-8, and SK-OV-3; and colon cancer cell lines COLO 205, HCC-2998, HCT-116, HCT-15, HT29, KM12, AND SW-620.
The growth assays for the breast cancer cell lines were conducted according to the method of Example 16. For the other cell lines, each assay was conducted with continuous exposure to the test compound at four log concentrations for six days, using a sulforhodamine-based protein determination to measure growth inhibition.

[2] = tested on: MCF-7 human breast carcinoma cells; test: Cell cycle analysis in MCF-7 cells; format: cell-based; details: 1 μM, 24 h
[3] = tested on: TIMP-1; test: TIMP-1 protein expression, MCF-10-CA1a cells; format: cell-based, human
Description: (§1) Western Blotting. Proteins were separated by gel electrophoresis using 4-12% pre-cast SDS-polyacrylamide gels (Invitrogen, Carlsbad, Calif.) and then electrophoretically transferred onto Hybond™-P membrane (Amersham Biosciences, Piscataway, N.J.). Blots were probed with specific antibodies (Santa Cruz Biotechnology, Inc). The ECL Plus Western Blotting Detection System of Amersham Biosciences (Piscataway, N.J.) and the procedure recommended by the manufacturer was used for the detection of antigens. Protein bands were quantified by analyzing the images obtained using an Alphaimager™ S-3400 (Alpha Innotech Corp., San Leandro, Calif.).
(§2) The effects of SR 13179 on the protein expression of TIMP-1, TIMP-2, and membrane-type 1 MMP (MT1-MMP) were studied. SR13179 induced the protein expression of TIMP-2 in a dose- and time-dependent manner. MCF-10-CA1a cells were treated with SR 13179 at 1, 3, or 5 μM concentrations for 48 h, or, alternatively, with […] SR 13179 for 8, 24, or 48 h. Cells were lysed and subjected to Western blotting.
(§3) The effect of SR13179 on the extracellular levels of TIMP-2 as well as MMP-2 was also investigated. Treatment of MCF-10CA1a cells with SR13179 at 5 μM concentration caused 5- to 8-fold increase in the secreted level of TIMP-2 and a 2-fold decrease in the extracellular level of MMP-2. […]

[4] = tested on: membrane-type 1 MMP (MT1-MMP); test: MT1-MMP protein expression, MCF-10-CA1a cells; format: cell-based, human
Description: as §1, §2, §3

SMILES: COc1cc(C2CC(O)c3ccc4ccccc4c3O2)cc(OC)c1OC (stereo not shown) [SR 13179, 2-(3,4,5-trimethoxyphenyl)-3,4-dihydro-2H-benzo[h]chromen-4-ol]
- IC50 [1]: 168 nM
- hypodiploid (sub G1) fraction compared with untreated control [2]: nearly three-fold increase
- TIMP-1 protein levels [3]: no significant effect
- MT1-MMP protein levels [4]: no significant effect
